The target of this assay is T1, USP25 (USP25-His6, Boston Biochem E-546) (Homo sapiens, UniProt Q9UHP3).
T1 construct: His6; purchased Boston Biochem E-546
T1 sequence (Q9UHP3 1-1055): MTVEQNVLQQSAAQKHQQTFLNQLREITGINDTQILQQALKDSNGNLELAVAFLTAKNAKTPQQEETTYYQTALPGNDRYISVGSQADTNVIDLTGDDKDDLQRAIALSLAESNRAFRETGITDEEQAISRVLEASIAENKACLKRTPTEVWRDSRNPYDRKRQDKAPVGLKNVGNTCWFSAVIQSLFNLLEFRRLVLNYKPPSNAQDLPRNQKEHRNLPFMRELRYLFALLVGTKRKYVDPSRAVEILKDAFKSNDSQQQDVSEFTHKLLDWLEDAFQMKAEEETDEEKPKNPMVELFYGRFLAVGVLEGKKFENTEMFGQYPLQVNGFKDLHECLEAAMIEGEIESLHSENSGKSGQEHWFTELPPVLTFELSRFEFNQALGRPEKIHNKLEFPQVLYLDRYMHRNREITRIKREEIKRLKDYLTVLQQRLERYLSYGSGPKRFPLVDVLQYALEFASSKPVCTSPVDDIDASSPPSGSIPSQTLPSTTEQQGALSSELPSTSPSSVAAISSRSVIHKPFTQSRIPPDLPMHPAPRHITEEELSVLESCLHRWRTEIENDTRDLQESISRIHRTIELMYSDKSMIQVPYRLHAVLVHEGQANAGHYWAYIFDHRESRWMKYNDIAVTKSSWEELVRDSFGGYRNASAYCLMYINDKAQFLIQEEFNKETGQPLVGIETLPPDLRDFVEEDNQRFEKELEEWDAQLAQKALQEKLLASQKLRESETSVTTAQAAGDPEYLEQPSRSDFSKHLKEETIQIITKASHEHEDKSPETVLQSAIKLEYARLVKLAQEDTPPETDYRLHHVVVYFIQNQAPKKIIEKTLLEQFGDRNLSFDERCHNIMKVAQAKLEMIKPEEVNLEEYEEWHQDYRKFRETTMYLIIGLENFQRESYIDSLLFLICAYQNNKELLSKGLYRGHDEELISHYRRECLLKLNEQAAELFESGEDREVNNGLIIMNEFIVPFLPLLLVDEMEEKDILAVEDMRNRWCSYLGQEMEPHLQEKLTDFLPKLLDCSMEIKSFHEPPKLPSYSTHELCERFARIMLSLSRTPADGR
In words: Ubiquitin-Rhodamine 110 Assay for USP25 Activity, Example A-2. Format: biochemical. Conditions: Ubiquitin-Rhodamine 110 assay, Example A-2; read-out: USP25 A-2 IC50 range. The gist of the method:
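Inhibition is quantified as IC50 by 4-parameter fit of fluorescence (485/535 nm) from Ub-Rh110 hydrolysis. Enzyme USP25-His6 at 75 pM with 30 min compound preincubation, then 25 nM substrate for 45 min at room temperature in pH 8.0 Tris buffer containing BME.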
Regarding `Cc1ccc2c(N)c(C(=O)N[C@H]3COc4cc(N5C[C@H]6NCCC(F)(F)[C@H]6C5)ccc4C3)sc2n1` [Example 238, N-[(3R)-7-[(4aS,7aS)-4,4-difluoro-octahydro-1H-pyrrolo[3,4-b]pyridin-6-yl]-3,4-dihydro-2H-1-benzopyran-3-yl]-3-amino-6-methylthieno[2,3-b]pyridine-2-carboxamide], the IC50 fell in the range of 0.2 to 2 µM.
In the case of `Cc1ccc2c(N)c(C(=O)N[C@H]3COc4cc(N5C[C@@H](N)CC[C@H]5C(F)(F)F)ccc4C3)sc2n1` [Example 245, 3-amino-N-[(3R)-7-[(2S,5S)-5-amino-2-(trifluoromethyl)piperidin-1-yl]-3,4-dihydro-2H-1-benzopyran-3-yl]-6-methylthieno[2,3-b]pyridine-2-carboxamide], the IC50 lay in the range of 0.05 to 0.2 µM.
Consider `CO[C@H]1CN(c2cc3c(cc2C#N)C[C@@H](NC(=O)c2sc4nc(C)ccc4c2N)CC3)C[C@@H]1N` [Example 201, 3-amino-N-[(2S)-6-[(3S,4S)-3-amino-4-methoxypyrrolidin-1-yl]-7-cyano-1,2,3,4-tetrahydronaphthalen-2-yl]-6-methylthieno[2,3-b]pyridine-2-carboxamide], for which the IC50 is 0.2 to 2 µM.
With `Cc1ccc2c(N)c(C(=O)N[C@@H]3Cc4ccc(N5CCNCC5)nc4[C@@H](C)C3)sc2n1` (single isomer, unassigned) [Example 205], the IC50 is above 2 µM.
The result for `Cc1cc(C)c2c(N)c(C(=O)N[C@H]3COc4cc(N5CC[C@H]6CNC[C@H]65)ccc4C3)sc2n1` [Example 226, N-[(3R)-7-[(3aS,6aS)-octahydropyrrolo[2,3-c]pyrrol-1-yl]-3,4-dihydro-2H-1-benzopyran-3-yl]-3-amino-4,6-dimethylthieno[2,3-b]pyridine-2-carboxamide] reads 0.05 to 0.2 µM; that for `CO[C@H]1CN(c2ccc3c(c2)OC[C@H](NC(=O)c2sc4nc(C)ccc4c2N)C3)C[C@@H]1NC(C)=O` [Example 213, 3-amino-N-[(3R)-7-[(3S,4S)-3-acetamido-4-methoxypyrrolidin-1-yl]-3,4-dihydro-2H-1-benzopyran-3-yl]-6-methylthieno[2,3-b]pyridine-2-carboxamide], 0.2 to 2 µM; that for `Cc1cc(C)c2c(N)c(C(=O)N[C@H]3CCc4nc(N5CC[C@@H]6CNC[C@@H]65)ccc4C3)sc2n1` [Example 219, N-[(6S)-2-[(3aR,6aR)-octahydropyrrolo[2,3-c]pyrrol-1-yl]-5,6,7,8-tetrahydroquinolin-6-yl]-3-amino-4,6-dimethylthieno[2,3-b]pyridine-2-carboxamide], 0.05 to 0.2 µM.
The result for `Cc1ccc2c(N)c(C(=O)N[C@H]3COc4cc(N5C[C@H](OC(C)C)[C@@H](N)C5)ccc4C3)sc2n1` [Example 202, 3-amino-N-[(3R)-7-[(3S,4S)-3-amino-4-(propan-2-yloxy)pyrrolidin-1-yl]-3,4-dihydro-2H-1-benzopyran-3-yl]6-methylthieno[2,3-b]pyridine-2-carboxamide] reads 0.2 to 2 µM; that for `Cc1ccc2c(N)c(C(=O)N[C@H]3COc4cc(N5CC[C@H]6CNCC[C@H]65)ccc4C3)sc2n1` [Example 235, N-[(3R)-7-[(3aS,7aR)-octahydro-1H-pyrrolo[3,2-c]pyridin-1-yl]-3,4-dihydro-2H-1-benzopyran-3-yl]-3-amino-6-methylthieno[2,3-b]pyridine-2-carboxamide], 0.05 to 0.2 µM; that for `Cc1ccc2c(N)c(C(=O)N[C@H]3Cc4ccc(N5CCNCC5)nc4[C@@H](C)C3)sc2n1` [Example 206, 3-amino-6-methyl-N-[(6R,8S)-8-methyl-2-(piperazin-1-yl)-5,6,7,8-tetrahydroquinolin-6-yl]thieno[2,3-b]pyridine-2-carboxamide], above 2 µM.
As for `CCO[C@H]1CN(c2ccc3c(n2)OC[C@H](NC(=O)c2sc4nc(C)cnc4c2N)C3)C[C@@H]1N` [Example 182, 7-amino-N-[(3R)-7-[(3S,4S)-3-amino-4-ethoxypyrrolidin-1-yl]-2H,3H,4H-pyrano[2,3-b]pyridin-3-yl]-3-methylthieno[2,3-b]pyrazine-6-carboxamide], the figure is above 2 µM; as for `CCO[C@@H]1CN(c2ccc3c(n2)CC[C@H](NC(=O)c2sc4nc(C)ccc4c2N)C3)C[C@@H]1N` [Example 254, 3-amino-N-[(6S)-2-[(3S,4R)-3-amino-4-ethoxypyrrolidin-1-yl]-5,6,7,8-tetrahydroquinolin-6-yl]-6-methylthieno[2,3-b]pyridine-2-carboxamide], above 2 µM; as for `COC[C@H]1CN(c2ccc3c(c2)CC[C@H](NC(=O)c2sc4nc(C)ccc4c2N)C3)C[C@H]1N` [Example 253, 3-amino-N-[(2S)-6-[(3S,4S)-3-amino-4-(methoxymethyl)pyrrolidin-1-yl]-1,2,3,4-tetrahydronaphthalen-2-yl]-6-methylthieno[2,3-b]pyridine-2-carboxamide], 0.2 to 2 µM.
For the compound `Cc1cc(C)c2c(N)c(C(=O)N[C@H]3COc4cc(N5CC6CCC(C5)N6)c(C#N)c(F)c4C3)sc2n1` [Example 241, 3-amino-N-[(3R)-6-cyano-7-{3,8-diazabicyclo[3.2.1]octan-3-yl}-5-fluoro-3,4-dihydro-2H-1-benzopyran-3-yl]-4,6-dimethylthieno[2,3-b]pyridine-2-carboxamide], the IC50 is 0.001 to 0.05 µM.
As for `Cc1ccc2c(N)c(C(=O)N[C@H]3COc4cc(N5CCO[C@H]6CNC[C@H]65)ccc4C3)sc2n1` [Example 184, N-[(3R)-7-[(4aR, 7aS)-octahydropyrrolo[3,4-b]morpholin-4-yl]-3,4-dihydro-2H-1-benzopyran-3-yl]-3-amino-6-methylthieno[2,3-b]pyridine-2-carboxamide], the figure is 0.05 to 0.2 µM.
As for `COC[C@@H]1C[C@@H](N)CN1c1ccc2c(c1)OC[C@H](NC(=O)c1sc3nc(C)ccc3c1N)C2` [Example 260, 3-amino-N-[(3R)-7-[(25,4R)-4-amino-2-(methoxymethyl)pyrrolidin-1-yl]-3,4-dihydro-2H-1-benzopyran-3-yl]-6-methylthieno[2,3-b]pyridine-2-carboxamide], the figure is 0.001 to 0.05 µM; as for `Cc1cc(C)c2c(N)c(C(=O)N[C@H]3COc4cc(N5CC[C@H]6CNC[C@H]65)cc(F)c4C3)sc2n1` (single isomer, unassigned) [Example 222], 0.05 to 0.2 µM.
The result for `CN[C@H]1CN(c2ccc3c(c2)OC[C@H](NC(=O)c2sc4nc(C)ccc4c2N)C3)C[C@@H]1OC` [Example 212, 3-amino-N-[(3R)-7-[(3S,4S)-3-methoxy-4-(methylamino)pyrrolidin-1-yl]-3,4-dihydro-2H-1-benzopyran-3-yl]-6-methylthieno[2,3-b]pyridine-2-carboxamide] reads 0.2 to 2 µM; that for `CO[C@]1(C)CN(c2ccc3c(n2)CC[C@H](NC(=O)c2sc4nc(C)ccc4c2N)C3)C[C@H]1N` [Example 211, 3-amino-N-[(6S)-2-[(3R,4R)-4-amino-3-methoxy-3-methylpyrrolidin-1-yl]-5,6,7,8-tetrahydroquinolin-6-yl]-6-methylthieno[2,3-b]pyridine-2-carboxamide], above 2 µM.
Turning to `Cc1ccc2c(N)c(C(=O)N[C@H]3COc4cc(N5CC[C@H]6CNC[C@H]65)cc(F)c4C3)sc2n1` [Example 220, N-[(3R)-7-[(3aS,6aS)-octahydropyrrolo[2,3-c]pyrrol-1-yl]-5-fluoro-3,4-dihydro-2H-1-benzopyran-3-yl]-3-amino-6-methylthieno[2,3-b]pyridine-2-carboxamide], the IC50 lay in the range of 0.05 to 0.2 µM.
In the case of `Cc1cc(C)c2c(N)c(C(=O)N[C@H]3COc4cc(N5CC[C@@H]6CNC[C@@H]65)ccc4C3)sc2n1` [Example 227, N-[(3R)-7-[(3aR,6aR)-octahydropyrrolo[2,3-c]pyrrol-1-yl]-3,4-dihydro-2H-1-benzopyran-3-yl]-3-amino-4,6-dimethylthieno[2,3-b]pyridine-2-carboxamide], the IC50 lay within 0.05 to 0.2 µM.
As for `CO[C@H]1CN(c2nc3c(cc2F)C[C@@H](NC(=O)c2sc4nc(C)ccc4c2N)CC3)C[C@@H]1N` [Example 183, 3-amino-N-[(6S)-2-[(3S,4S)-3-amino-4-methoxypyrrolidin-1-yl]-3-fluoro-5,6,7,8-tetrahydroquinolin-6-yl]-6-methylthieno[2,3-b]pyridine-2-carboxamide], the IC50 is above 2 µM.

Values taken from patent US11524966B1 (Valo Early Discovery, Inc., priority 2017, dated 2022).
